Patent US6723364B1, “Fog treatment method using a liquid composition for treating fruits and vegetables and implementing device” (Xeda International, priority 1998, dated 2004)
Converted amounts (≈) assume the structure as drawn.

Key:
[1] = tested on: species of fungus (AA, BC, FO, GC, GR, PD, PE, PV, PhP); assay: Fungicidal activity in vitro: total of inhibition grades over the nine species of fungus; format: cell-based; settings: sum of the grades over the nine fungi
Procedure: The Cristomalt medium used for the evaluations of the fungicidal activities comprises 0.1% of Cristomalt (malt extract) and 0.2% of agar.
This culture medium is, after sterilization, brought to 55° C. The terpene compound tested is then introduced in the pure form into the culture medium under warm conditions. Immediately after agitating, the medium, enriched with the terpene product, is poured into Petri dishes (diameter 9 cm, filled with 20 ml of medium). The agar-comprising medium solidifies on cooling. The Petri dishes are then inoculated with plugs, with a diameter of 6 mm, withdrawn from the edge of a culture of the tested fungus, which culture is obtained on Cristomalt medium.
Inoculation is carried out at 22° C.
The mycelial growth was determined periodically (5 to 15 days, according to the species of fungus).
The results obtained are analysed simply by using the assessment scale illustrated in Table 2:
The results obtained have been expressed in Table 3 using the scale in Table 2.

Escherichia coli = assay: Bactericidal activity in vitro in LB agar medium; format: cell-based; settings: read-out: MIC (concentration needed to completely inhibit the growth of the bacteria)
Procedure: (§1) The bactericidal activity of eugenol and isoeugenol was evaluated in vitro and compared with that of other terpenes.
(§2) The culture medium used is the following LB medium:
(§3) Bactotryptone: 1% by weight
(§4) Yeast extract: 0.5% by weight
(§5) A suspension of bacteria at 10^6 CFU/ml was prepared in sterilized water from the LB medium. 200 μl of this bacterial suspension were added to 20 ml of presterilized LB culture medium brought to 55° C. The tested terpene is then added to the culture medium. After agitation, the medium is immediately divided among Petri dishes. The medium solidifies on cooling.
(§6) Incubation is carried out at 28° C. when the bacterium is Erwinia carotovora and at 37° C. when the bacterium is Escherichia coli.
(§7) The growth of mould in the culture medium is observed. The same experiment is carried out in the absence of terpene (control experiment).
(§8) The protocol used is that described above.

[2] = tested on: Phlyctaena vagabonda (“Gloeosporium”); assay: Germination of the spores in vitro; format: cell-based; settings: PV;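 further: ++ germination like control and 0 no spores germinated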
Procedure: (§9) The activity of eugenol and of isoeugenol on the germination of the spores was evaluated in vitro and compared with that of other terpenes.
(§10) The procedure of Example 4 is used to do this, except that the concentration of eugenol and of isoeugenol was set at x μg/ml in the culture media used and that 50 μl of a suspension of spores, adjusted to 100,000 spores/ml, are deposited in each Petri dish.
(§11) The same experiment was carried out starting with a terpene-free culture medium (control test).
(§12) The results were evaluated using the following assessment criteria:
(§13) +: considerable reduction in the level of spores germinated
(§14) The results obtained for 3 different concentrations of terpenes in the culture medium, namely 40 μg/ml, 80 μg/ml and 1280 μg/ml, are listed in Tables 4, 5 and 6.

Penicillium expansum = assay: Germination of the spores in vitro; format: cell-based; settings: PE;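 further: ++ germination like control and 0 no spores germinated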
Procedure: as §9, §10, §11, §12, §13, §14

Alternaria alternata = assay: Germination of the spores in vitro; format: cell-based; settings: AA;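 further: ++ germination like control and 0 no spores germinated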
Procedure: as §9, §10, §11, §12, §13, §14

Penicillium digitatum = assay: Germination of the spores in vitro; format: cell-based; settings: PD
Procedure: as §9, §10, §11, §12, §13, §14

Botrytis cinerea = assay: Germination of the spores in vitro; format: cell-based; settings: BC
Procedure: as §9, §10, §11, §12, §13, §14

Geocrichum candidum = assay: Germination of the spores in vitro; format: cell-based; settings: GC
Procedure: as §9, §10, §11, §12, §13, §14

Fusarium oxysporum = assay: Germination of the spores in vitro; format: cell-based; settings: FO;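 further: ++ germination like control and 0 no spores germinated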
Procedure: as §9, §10, §11, §12, §13, §14

Phytophtora parasitica = assay: Germination of the spores in vitro; format: cell-based; settings: PhP
Procedure: as §9, §10, §11, §12, §13, §14

Erwinia carotovora = assay: Bactericidal activity in vitro in LB agar medium; format: cell-based; settings: for growth in the culture medium with respect to the control: 28° C.
Procedure: as §1, §2, §3, §4, §5, §6, §7
The results are evaluated using the following assessment scale:
++: mould growth identical to the control
+: mould present with a marked reduction in growth with respect to the control
: complete absence of growth.
The results obtained for 3 different concentrations, namely 20, 80 and 320 μg/ml, in the case of the bacterium Erwinia carotovora are summarized in Table 7.
as §8

potato tubers = assay: Sprouting-inhibiting treatment of potato tubers by thermal fogging; format: in vivo; settings: after 5 months; cold room 8 to 9° C.; 45 g/tonne then 15 g/tonne every 20 days by thermal fogging
Procedure: The effectiveness of eugenol and of isoeugenol in the sprouting-inhibiting treatment of potato tubers was evaluated and compared with that of other terpenes.
The following compositions were used in the case of eucalyptol, eugenol, isoeugenol, limonene, safrole and terpineol:
60% by weight of terpene;
7% by weight of a nonionic emulsifier;
33% by weight of butyl acetate.
In the case of L-carvone, the following composition was employed:
30% by weight of L-carvone;
10% by weight of ethanol;
5% by weight of nonionic emulsifier;
35% by weight of propylene glycol.
Isopropyl chlorophenylcarbamate (CIPC) is a compound used in the art as sprouting inhibitor for potato tubers. Its activity was compared with that of eugenol and of isoeugenol.
The composition based on isopropyl chloro-phenylcarbamate has the following formulation: […]
20% by weight of isopropyl chlorophenyl-carbamate;
50% by weight of propylene glycol;
10% by weight of nonionic emulsifier;
Each of the compositions tested was applied by thermal fogging. The temperature at the outlet of the thermal fogging device was 240° C., except in the case of the compositions based on L-carvone and on CIPC, where it was 180° C.
The amount of composition which has to be applied is calculated in each case so as to obtain an equivalent concentration of active material on the potato tubers.
In this example, repeated applications were carried out by following the following protocol:
45 g/tonne of tubers at the beginning of storage;
15 g/tonne of tubers every 20 days; so that, after 6 months, 165 g of active principle have been applied per tonne of tubers.
During storage, the tubers were stored in a cold room at a temperature of 8 to 9° C.

C=CCc1ccc2c(c1)OCO2 [SAFROLE, safrole]
Total of the degrees of inhibition [1]: 42 | MIC (Escherichia coli): > 640 µg/mL | germination of the spores ([2]; x = 40 μg/ml): + | germination of the spores ([2]; x = 80 μg/ml): + | germination of the spores ([2]; x = 1280 μg/ml): 0 | germination of the spores (Penicillium expansum; x = 40 μg/ml): + | germination of the spores (Penicillium expansum; x = 80 μg/ml): + | germination of the spores (Penicillium expansum; x = 1280 μg/ml): + | germination of the spores (Alternaria alternata; x = 40 μg/ml): ++ | germination of the spores (Alternaria alternata; x = 80 μg/ml): + | germination of the spores (Alternaria alternata; x = 1280 μg/ml): 0 | germination of the spores (Penicillium digitatum; x = 40 μg/ml): + | germination of the spores (Penicillium digitatum; x = 80 μg/ml): + | germination of the spores (Penicillium digitatum; x = 1280 μg/ml): 0 | germination of the spores (Botrytis cinerea; x = 40 μg/ml): + | germination of the spores (Botrytis cinerea; x = 80 μg/ml): 0 | germination of the spores (Botrytis cinerea; x = 1280 μg/ml): 0 | germination of the spores (Geocrichum candidum; x = 40 μg/ml): ++ | germination of the spores (Geocrichum candidum; x = 80 μg/ml): + | germination of the spores (Geocrichum candidum; x = 1280 μg/ml): 0 | germination of the spores (Fusarium oxysporum; x = 40 μg/ml): ++ | germination of the spores (Fusarium oxysporum; x = 80 μg/ml): + | germination of the spores (Fusarium oxysporum; x = 1280 μg/ml): 0 | germination of the spores (Phytophtora parasitica; x = 40 μg/ml): 0 | germination of the spores (Phytophtora parasitica; x = 80 μg/ml): 0 | germination of the spores (Phytophtora parasitica; x = 1280 μg/ml): 0 | growth in the culture medium with respect to the control (Erwinia carotovora; Concentration 20 μg/ml): ++ | growth in the culture medium with respect to the control (Erwinia carotovora; Concentration 80 μg/ml): ++ | growth in the culture medium with respect to the control (Erwinia carotovora; Concentration 320 μg/ml): + | MIC (Erwinia carotovora; Pectobacterium carotovorum, read-out: MIC (concentration needed to completely inhibit the growth of the bacteria)): 320 to 640 µg/mL (≈ 1.97 to 3.95 mM) | Loss in weight of the tubers (potato tubers): 3.6% | Total weight of the sprouts >2 mm (potato tubers): 57.0 g | Tubers at the white point stage (potato tubers): 6.6% | Tubers with sprouts 2 to 5 mm (potato tubers): 40.1% | Tubers with sprouts <2 mm (potato tubers): 15.6% | Tubers with sprouts >2 mm (potato tubers): 76.6% | Tubers with sprouts >5 mm (potato tubers): 36.5% | Unsprouted tubers (potato tubers): 1.2%
